Laboratory results as given in ChEMBL document CHEMBL1201862, “PubChem BioAssay data set” (2004).
Activity calls are given as the source filed them.

Assays:
Escherichia coli = test: microbe, parasite or virus in culture
[1] = target: T1, Ubiquitin-conjugating enzyme E2 N (Homo sapiens, UniProt P61088); format: functional;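 note: Dose-response confirmation in a TR-FRET assay detecting UBC13-driven polyubiquitin chain formation, inhibition measured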
T1 sequence (P61088 whole entry): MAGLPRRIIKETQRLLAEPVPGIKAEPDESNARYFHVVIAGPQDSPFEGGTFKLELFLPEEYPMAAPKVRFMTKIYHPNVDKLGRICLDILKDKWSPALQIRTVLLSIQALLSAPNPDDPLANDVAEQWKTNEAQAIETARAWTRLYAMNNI

[2] = target: T2, DNA repair and recombination protein RAD54-like (Homo sapiens, UniProt Q92698); test: inhibitors of human RAD54 branch migration, confirmation, biochemical, fluorescence, cherry-picked samples, dose series (AID 651657); format: functional
T2 sequence (Q92698 whole entry): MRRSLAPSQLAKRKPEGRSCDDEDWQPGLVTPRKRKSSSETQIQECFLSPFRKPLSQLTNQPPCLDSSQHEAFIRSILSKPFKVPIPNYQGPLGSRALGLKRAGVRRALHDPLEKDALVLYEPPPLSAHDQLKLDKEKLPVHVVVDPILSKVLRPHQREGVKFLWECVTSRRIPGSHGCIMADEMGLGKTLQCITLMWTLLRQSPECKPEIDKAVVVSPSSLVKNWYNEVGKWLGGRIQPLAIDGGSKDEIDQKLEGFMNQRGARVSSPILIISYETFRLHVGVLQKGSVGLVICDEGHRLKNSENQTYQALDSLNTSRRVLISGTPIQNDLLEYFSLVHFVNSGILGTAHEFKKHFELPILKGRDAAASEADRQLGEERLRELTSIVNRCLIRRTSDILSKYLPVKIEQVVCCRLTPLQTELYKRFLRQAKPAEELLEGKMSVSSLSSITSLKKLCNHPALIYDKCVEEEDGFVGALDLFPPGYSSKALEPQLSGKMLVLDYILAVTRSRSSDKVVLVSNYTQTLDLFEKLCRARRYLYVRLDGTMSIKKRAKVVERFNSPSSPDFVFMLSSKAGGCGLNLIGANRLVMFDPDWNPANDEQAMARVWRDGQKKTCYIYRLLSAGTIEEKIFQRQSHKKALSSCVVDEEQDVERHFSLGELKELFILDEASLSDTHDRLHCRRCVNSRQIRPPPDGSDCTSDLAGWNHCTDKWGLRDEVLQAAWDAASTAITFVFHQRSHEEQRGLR

Troponin, cardiac muscle = Troponin, cardiac muscle (Homo sapiens, UniProt P19429+P45379+P63316); test: Fluorescence-based biochemical high throughput dose response assay for activators of the calcium sensitivity of cardiac Regulated Thin Filaments (RTF). [Related pubchem assays (depositor defined):AID493008, AID493018, AID504382, AID504383]; format: protein-complex assay
Beta-galactosidase = Beta-galactosidase (Escherichia coli, UniProt Q8VNN2); test: PubChem AID 485352; format: functional
Chain of Beta-galactosidase (Q8VNN2 whole entry): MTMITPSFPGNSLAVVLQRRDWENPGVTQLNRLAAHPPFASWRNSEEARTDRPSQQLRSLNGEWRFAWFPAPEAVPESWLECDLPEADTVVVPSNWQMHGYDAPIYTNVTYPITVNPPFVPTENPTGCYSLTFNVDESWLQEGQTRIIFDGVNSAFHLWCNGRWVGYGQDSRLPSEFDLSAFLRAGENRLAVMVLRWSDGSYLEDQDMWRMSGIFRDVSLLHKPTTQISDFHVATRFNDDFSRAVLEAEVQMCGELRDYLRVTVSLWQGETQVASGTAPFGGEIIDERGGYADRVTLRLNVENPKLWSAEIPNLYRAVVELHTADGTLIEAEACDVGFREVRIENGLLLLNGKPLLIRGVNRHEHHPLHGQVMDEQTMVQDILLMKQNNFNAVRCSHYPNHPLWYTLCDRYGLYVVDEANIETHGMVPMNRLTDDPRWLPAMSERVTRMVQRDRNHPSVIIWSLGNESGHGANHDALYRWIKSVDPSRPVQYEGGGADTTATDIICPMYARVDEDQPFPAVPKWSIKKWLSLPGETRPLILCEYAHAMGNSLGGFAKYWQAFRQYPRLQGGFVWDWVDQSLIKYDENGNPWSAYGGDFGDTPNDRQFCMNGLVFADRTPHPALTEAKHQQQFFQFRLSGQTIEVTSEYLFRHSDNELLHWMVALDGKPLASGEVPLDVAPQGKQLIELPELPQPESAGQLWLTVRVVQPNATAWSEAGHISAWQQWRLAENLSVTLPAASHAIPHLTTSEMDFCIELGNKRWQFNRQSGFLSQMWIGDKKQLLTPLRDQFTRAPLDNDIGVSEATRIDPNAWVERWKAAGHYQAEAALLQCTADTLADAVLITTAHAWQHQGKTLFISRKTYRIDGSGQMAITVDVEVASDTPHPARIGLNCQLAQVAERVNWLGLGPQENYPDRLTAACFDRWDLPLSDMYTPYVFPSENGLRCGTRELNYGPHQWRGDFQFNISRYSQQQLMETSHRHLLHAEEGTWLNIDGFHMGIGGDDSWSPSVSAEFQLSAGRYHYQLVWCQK

[3] = target: T3, Type-1 angiotensin II receptor (Homo sapiens, UniProt P30556); test: AT1 receptor antagonists, dose response, selectivity assay for APJ receptor antagonist project, cell-based, uHTS hits (AID 463214); format: functional;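 note: antagonist potency against angiotensin II stimulated AT1 response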
T3 sequence (P30556 whole entry): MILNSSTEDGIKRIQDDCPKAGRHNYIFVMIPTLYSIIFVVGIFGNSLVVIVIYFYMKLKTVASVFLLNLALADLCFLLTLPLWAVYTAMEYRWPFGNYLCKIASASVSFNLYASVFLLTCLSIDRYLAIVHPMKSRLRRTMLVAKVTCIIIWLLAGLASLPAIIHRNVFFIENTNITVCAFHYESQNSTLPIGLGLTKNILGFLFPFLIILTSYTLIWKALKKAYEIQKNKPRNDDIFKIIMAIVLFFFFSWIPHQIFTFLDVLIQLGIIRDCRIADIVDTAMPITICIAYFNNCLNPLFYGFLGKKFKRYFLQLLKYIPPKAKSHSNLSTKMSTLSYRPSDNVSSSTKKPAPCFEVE

Genome polyprotein = Genome polyprotein (dengue virus type 2, UniProt P29990); test: Dengue-2 NS5 methyltransferase inhibitors, primary screen, biochemical, confirmation dose response (AID 588689); format: functional
Chain of Genome polyprotein (P29990 2492-3391 limits assumed): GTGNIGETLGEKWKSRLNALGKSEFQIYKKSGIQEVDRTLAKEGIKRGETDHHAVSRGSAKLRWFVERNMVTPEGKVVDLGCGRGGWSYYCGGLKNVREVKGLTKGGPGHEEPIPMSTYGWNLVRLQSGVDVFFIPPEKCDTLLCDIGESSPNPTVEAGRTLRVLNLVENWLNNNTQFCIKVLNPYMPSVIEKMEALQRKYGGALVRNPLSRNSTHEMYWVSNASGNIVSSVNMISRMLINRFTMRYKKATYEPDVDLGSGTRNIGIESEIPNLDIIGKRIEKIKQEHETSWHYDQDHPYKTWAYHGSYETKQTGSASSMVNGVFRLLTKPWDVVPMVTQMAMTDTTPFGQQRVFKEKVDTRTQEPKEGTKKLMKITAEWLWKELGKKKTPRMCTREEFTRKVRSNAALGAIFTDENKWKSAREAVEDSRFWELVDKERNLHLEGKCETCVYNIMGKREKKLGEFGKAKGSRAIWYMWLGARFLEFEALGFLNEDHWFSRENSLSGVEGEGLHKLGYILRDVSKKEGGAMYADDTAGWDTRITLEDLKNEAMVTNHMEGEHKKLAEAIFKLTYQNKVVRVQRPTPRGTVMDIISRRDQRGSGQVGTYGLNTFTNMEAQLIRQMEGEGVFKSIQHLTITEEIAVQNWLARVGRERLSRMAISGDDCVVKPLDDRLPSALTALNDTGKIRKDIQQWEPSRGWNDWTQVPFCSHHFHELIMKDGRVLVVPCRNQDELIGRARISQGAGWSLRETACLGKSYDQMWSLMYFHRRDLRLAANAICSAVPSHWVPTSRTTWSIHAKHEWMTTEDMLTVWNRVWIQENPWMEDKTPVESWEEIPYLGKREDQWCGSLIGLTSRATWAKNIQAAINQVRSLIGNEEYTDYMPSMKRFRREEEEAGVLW

[4] = target: DNA dC->dU-editing enzyme APOBEC-3A (Homo sapiens, UniProt P31941); test: Dose Response confirmation of small molecule APOBEC3A DNA Deaminase Inhibitors via a fluorescence-based single-stranded DNA deaminase assay. [Related pubchem assays (depositor defined):AID493011, AID493024]; format: functional
Chain of DNA dC->dU-editing enzyme APOBEC-3A (P31941 whole entry): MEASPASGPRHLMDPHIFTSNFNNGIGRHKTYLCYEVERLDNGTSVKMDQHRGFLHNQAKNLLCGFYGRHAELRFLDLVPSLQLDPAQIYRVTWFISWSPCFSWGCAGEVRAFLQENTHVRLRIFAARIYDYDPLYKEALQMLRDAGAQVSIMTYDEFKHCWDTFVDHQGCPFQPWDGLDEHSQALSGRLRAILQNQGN

[5] = target: DNA dC->dU-editing enzyme APOBEC-3G (Homo sapiens, UniProt Q9HC16); format: functional;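 note: Dose-response counterscreen measuring inhibition of APOBEC3G DNA deaminase activity, run while confirming APOBEC3A inhibitors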
Chain of DNA dC->dU-editing enzyme APOBEC-3G (Q9HC16 whole entry): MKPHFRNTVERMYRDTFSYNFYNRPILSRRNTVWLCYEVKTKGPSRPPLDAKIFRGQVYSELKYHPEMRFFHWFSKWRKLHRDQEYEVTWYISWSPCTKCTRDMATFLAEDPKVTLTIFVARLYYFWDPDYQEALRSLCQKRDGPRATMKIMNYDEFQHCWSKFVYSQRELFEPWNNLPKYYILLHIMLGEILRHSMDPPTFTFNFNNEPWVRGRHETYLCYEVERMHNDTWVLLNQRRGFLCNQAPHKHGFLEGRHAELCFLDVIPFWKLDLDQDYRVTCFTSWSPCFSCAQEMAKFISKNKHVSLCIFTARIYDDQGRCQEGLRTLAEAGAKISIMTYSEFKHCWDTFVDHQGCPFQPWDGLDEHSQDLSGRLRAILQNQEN

[6] = target: T4, Histone-lysine N-methyltransferase NSD2 (Homo sapiens, UniProt O96028); format: biochemical
T4 sequence (O96028 whole entry): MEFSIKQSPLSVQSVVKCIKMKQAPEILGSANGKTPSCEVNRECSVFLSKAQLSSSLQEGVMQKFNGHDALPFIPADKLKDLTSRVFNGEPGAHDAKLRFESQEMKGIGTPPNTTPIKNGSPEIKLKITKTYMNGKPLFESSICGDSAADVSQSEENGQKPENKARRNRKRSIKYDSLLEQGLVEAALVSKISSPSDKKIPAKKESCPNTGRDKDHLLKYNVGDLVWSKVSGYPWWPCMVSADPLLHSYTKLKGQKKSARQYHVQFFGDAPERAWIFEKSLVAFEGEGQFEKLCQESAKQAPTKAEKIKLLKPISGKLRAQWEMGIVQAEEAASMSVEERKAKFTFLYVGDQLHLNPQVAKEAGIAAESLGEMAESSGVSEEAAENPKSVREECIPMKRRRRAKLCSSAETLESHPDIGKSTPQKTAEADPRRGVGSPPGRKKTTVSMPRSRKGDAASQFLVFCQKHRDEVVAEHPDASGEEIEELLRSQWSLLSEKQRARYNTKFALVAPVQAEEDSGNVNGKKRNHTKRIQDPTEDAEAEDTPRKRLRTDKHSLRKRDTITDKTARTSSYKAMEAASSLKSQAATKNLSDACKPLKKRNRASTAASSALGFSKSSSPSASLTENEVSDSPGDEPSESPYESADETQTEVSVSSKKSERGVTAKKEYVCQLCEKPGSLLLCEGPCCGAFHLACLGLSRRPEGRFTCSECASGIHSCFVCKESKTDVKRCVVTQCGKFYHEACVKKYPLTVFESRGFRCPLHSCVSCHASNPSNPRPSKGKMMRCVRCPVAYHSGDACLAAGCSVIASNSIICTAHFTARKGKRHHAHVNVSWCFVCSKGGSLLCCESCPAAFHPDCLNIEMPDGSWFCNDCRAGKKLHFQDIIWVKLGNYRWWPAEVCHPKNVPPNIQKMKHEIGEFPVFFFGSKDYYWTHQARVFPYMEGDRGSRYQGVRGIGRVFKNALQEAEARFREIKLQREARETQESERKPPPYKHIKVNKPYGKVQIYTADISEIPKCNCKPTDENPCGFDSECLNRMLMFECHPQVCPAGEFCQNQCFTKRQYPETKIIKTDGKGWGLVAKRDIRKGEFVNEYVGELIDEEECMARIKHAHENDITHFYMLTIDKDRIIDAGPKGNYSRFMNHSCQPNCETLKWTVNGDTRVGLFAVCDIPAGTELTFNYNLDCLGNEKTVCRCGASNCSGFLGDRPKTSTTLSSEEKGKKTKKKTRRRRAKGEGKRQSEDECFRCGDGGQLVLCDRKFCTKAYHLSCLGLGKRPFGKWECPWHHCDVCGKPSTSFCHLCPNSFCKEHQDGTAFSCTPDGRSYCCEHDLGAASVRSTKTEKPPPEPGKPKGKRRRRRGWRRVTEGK

[7] = HEp-2 cell cytotoxicity, dose response, cytotoxicity control for RSV inhibitor project, HTS (AID 2410); format: functional; conditions: human respiratory syncytial virus
[8] = target: T5, Adenosylmethionine-8-amino-7-oxononanoate aminotransferase (Mycobacterium tuberculosis, UniProt P9WQ81); test: Mycobacterium tuberculosis BioA enzyme inhibitor Measured in Biochemical System Using Plate Reader - 2163-02_Inhibitor_Dose_CherryPick_Activity.; format: functional, Mycobacterium tuberculosis UT205
T5 sequence (P9WQ81 whole entry): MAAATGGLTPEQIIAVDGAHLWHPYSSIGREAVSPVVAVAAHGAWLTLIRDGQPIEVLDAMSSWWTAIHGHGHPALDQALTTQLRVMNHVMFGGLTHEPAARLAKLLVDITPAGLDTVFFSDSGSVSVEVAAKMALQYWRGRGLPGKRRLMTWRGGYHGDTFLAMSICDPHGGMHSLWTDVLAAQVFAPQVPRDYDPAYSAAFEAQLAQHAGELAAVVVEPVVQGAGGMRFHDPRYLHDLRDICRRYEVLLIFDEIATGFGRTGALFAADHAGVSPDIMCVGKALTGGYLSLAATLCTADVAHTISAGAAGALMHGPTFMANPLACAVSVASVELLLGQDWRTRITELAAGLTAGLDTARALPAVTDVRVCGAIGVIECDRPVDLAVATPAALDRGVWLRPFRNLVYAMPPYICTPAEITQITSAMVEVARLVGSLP

HEK293 = test: inhibitors of LMP1-driven NF-kB reporter, dose response, cell-based, HEK293, luciferase, cherry-pick (AID 588343); format: functional; conditions: Homo sapiens
[9] = target: T6, Corticotropin-releasing factor receptor 2/Corticotropin-releasing factor-binding protein (Homo sapiens, UniProt P24387+Q13324); test: activators of CRF receptor 2 with binding protein – uHTS hits, confirmation (AID 602473); format: functional; conditions: read-out: EC50_Mean
T6 sequence (Q13324 whole entry): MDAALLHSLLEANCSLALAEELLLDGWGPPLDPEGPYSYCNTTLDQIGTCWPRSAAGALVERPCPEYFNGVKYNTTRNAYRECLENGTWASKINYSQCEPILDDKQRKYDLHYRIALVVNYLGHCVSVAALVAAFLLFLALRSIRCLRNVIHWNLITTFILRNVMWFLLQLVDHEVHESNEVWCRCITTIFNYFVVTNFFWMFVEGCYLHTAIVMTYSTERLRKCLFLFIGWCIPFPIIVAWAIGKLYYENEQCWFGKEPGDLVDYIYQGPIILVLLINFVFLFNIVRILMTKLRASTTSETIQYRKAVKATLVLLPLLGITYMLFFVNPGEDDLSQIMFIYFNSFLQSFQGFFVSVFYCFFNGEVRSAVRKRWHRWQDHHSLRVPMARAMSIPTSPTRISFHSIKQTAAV
T6 sequence (P24387 whole entry): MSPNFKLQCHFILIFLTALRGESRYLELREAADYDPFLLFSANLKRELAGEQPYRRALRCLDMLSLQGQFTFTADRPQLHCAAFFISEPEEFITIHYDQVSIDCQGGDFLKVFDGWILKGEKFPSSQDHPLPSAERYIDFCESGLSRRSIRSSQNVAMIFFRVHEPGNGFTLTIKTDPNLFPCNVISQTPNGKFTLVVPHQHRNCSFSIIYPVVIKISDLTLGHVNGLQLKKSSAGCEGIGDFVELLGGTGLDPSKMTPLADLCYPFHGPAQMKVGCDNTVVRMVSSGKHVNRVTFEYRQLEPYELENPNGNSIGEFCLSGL

[10] = target: T7, Low molecular weight phosphotyrosine protein phosphatase (Homo sapiens, UniProt P24666); format: functional; conditions: read-out: IC50_Mean;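 note: Dose-response confirmation assay measuring inhibition of LMPTP enzyme activity by fluorescence intensity read-out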
T7 sequence (P24666 whole entry): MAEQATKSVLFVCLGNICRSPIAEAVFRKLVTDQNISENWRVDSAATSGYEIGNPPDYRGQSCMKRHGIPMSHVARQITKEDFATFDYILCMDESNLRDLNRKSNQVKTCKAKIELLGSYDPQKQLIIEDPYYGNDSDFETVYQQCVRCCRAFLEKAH

[11] = inhibitors of intracellular T. cruzi replication, confirmation, NIH3T3 host cells, beta-gal luminescence (AID 2044); format: functional, cell-based;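 note: intracellular parasites grown in NIH/3T3 mouse fibroblasts as host cells; luminescent beta-galactosidase reporter signal from transgenic T. cruzi replicating inside host cells; inhibitors lower the luminescence signal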
[12] = cytotoxicity toward NIH3T3 fibroblasts, dose response, counter-screen, cell-based, ATP luminescence, mouse fibroblasts (AID 2010); format: functional;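 note: cells exposed to compound for about 90 hours before reading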

SMILES: Nc1nnnn1CC(=O)N/N=C/c1ccc(-c2cccc(Cl)c2)o1
- AC50 (Escherichia coli): 21.6 µM (active)

SMILES: Cc1nc2ccccc2c2oc(C(=O)N3CCC(N4CCCCC4)CC3)cc12
- IC50 [1]: > 20 µM (inactive)
- AC50 [2]: 23.1 µM (active)

SMILES: CC1CN(c2ccc(NS(=O)(=O)c3ccccc3)cc2C(=O)O)CC(C)O1 (configuration not stated)
- EC50 (Troponin, cardiac muscle): > 71.5 µM (inactive)

SMILES: COc1ccc(NC(=O)Nc2cccc3c2O[C@@H](CN(C)CC2CCCCC2)[C@@H](C)CN([C@H](C)CO)C3=O)cc1
- EC50 (Beta-galactosidase): > 40 µM (inactive)
- IC50 [3]: > 40 µM (not active)

SMILES: N#C/C(=C\c1ccc(C#N)cc1)C(=O)c1ccccc1
- IC50 (Genome polyprotein): > 100 µM (active)

SMILES: O=C1OCC(CO)(CO)N=C1NNc1cc(Cl)ccc1Cl
- EC50 (Beta-galactosidase): > 40 µM (inactive)
- IC50 [3]: 12.1 µM (active)

SMILES: COc1ccc(Cl)cc1N=C(S)NCc1cccnc1
- AC50 (Escherichia coli): 29.7 µM (active)

SMILES: O=C(O)c1ccc(CSc2n[nH]c(-c3ccco3)n2)cc1
- IC50 [4]: 9.95 µM (active)
- IC50 [5]: 19.3 µM (active)
- AC50 [6]: > 20 µM (inactive)

SMILES: COc1ccc(-c2nn(-c3ccccc3)cc2/C=N/NC(N)=S)cc1OC
- EC50 (Troponin, cardiac muscle): > 71.5 µM (inactive)

SMILES: O=C(Nc1ccc(F)c(F)c1)c1ccc(-n2cncn2)c([N+](=O)[O-])c1
- CC50 [7]: 18.3 µM (active)
- AC50 [8]: 1.49 µM (active)

SMILES: CCn1c2ccccc2c2cc(/C=N/NC(=O)c3ccccc3)ccc21
- AC50 (HEK293): 3.99 µM (active)

SMILES: C=C(C)CSc1nc(N)c2c3c(sc2n1)CCC3
- EC50 [9]: > 53 µM (inactive)
- AC50 [8]: 18.2 µM (active)

SMILES: COc1ccccc1S(=O)(=O)N1CC[C@@H]2[C@H](CO)Nc3ccc(-c4cccc(C#N)c4)cc3[C@@H]21
- AC50 [8]: 18.5 µM (active)

SMILES: Cn1c(CCN2CCN(c3ccccn3)CC2)nc2cc(NC(=O)COc3ccc([N+](=O)[O-])cc3)ccc21
- IC50 [10]: 8.47 µM (active)

SMILES: S=C(N/N=C/c1ccccc1)N1CCOCC1
- EC50 (Beta-galactosidase): > 40 µM (inactive)
- IC50 [3]: 13.3 µM (active)

SMILES: CCOC(=O)N1CCC(N(CCN(C)C)C(S)=Nc2ccc(Oc3ccccc3)cc2)CC1
- AC50 (Escherichia coli): 43.6 µM (active)

SMILES: CC1=C(C#N)C(c2cccnc2)C2=C(O)CC(c3ccc(Cl)cc3)CC2=N1 (configuration not stated)
- EC50 [11]: 2.26 µM (active)
- EC50 [12]: 21.8 µM (active)
- AC50 [8]: 0.67 µM (active)
